System: NOMO1
Assay: cell viability relative to DMSO control; higher = less cytotoxic
Details: 48 h
Outline: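 NOMO1 or SEM cells were plated at 500 cells/well and P12-Ichikawa cells at 1000 cells/well in 1536-well plates (5 μl), after each leukemia line had been adapted for at least four passages in each medium. Pin dosing delivered library compounds in DMSO at 11 threefold concentrations, 47 μM to 0.79 nM. CellTiter-Glo One luminescence was read after 48 h at 37°C. Viability is reported as a per-plate percentage of DMSO wells, with cell-free wells as background.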

[1] = HPLM + 10% dialyzed FBS, 0.000781 µM
[2] = HPLM + 10% dialyzed FBS, 0.00234 µM
[3] = HPLM + 10% dialyzed FBS, 0.00702 µM
[4] = HPLM + 10% dialyzed FBS, 0.0211 µM
[5] = HPLM + 10% dialyzed FBS, 0.0632 µM
[6] = HPLM + 10% dialyzed FBS, 0.19 µM
[7] = HPLM + 10% dialyzed FBS, 0.569 µM
[8] = HPLM + 10% dialyzed FBS, 1.71 µM
[9] = HPLM + 10% dialyzed FBS, 5.12 µM
[10] = HPLM + 10% dialyzed FBS, 15.4 µM
[11] = HPLM + 10% dialyzed FBS, 46.1 µM
[12] = RPMI 5 mM glucose + 10% FBS, 0.000781 µM
[13] = RPMI 5 mM glucose + 10% FBS, 0.00234 µM
[14] = RPMI 5 mM glucose + 10% FBS, 0.00702 µM
[15] = RPMI 5 mM glucose + 10% FBS, 0.0211 µM
[16] = RPMI 5 mM glucose + 10% FBS, 0.0632 µM
[17] = RPMI 5 mM glucose + 10% FBS, 0.19 µM
[18] = RPMI 5 mM glucose + 10% FBS, 0.569 µM
[19] = RPMI 5 mM glucose + 10% FBS, 1.71 µM
[20] = RPMI 5 mM glucose + 10% FBS, 5.12 µM
[21] = RPMI 5 mM glucose + 10% FBS, 15.4 µM
[22] = RPMI 5 mM glucose + 10% FBS, 46.1 µM
[23] = RPMI 5 mM glucose + 10% dialyzed FBS, 0.000781 µM
[24] = RPMI 5 mM glucose + 10% dialyzed FBS, 0.00234 µM
[25] = RPMI 5 mM glucose + 10% dialyzed FBS, 0.00702 µM
[26] = RPMI 5 mM glucose + 10% dialyzed FBS, 0.0211 µM
[27] = RPMI 5 mM glucose + 10% dialyzed FBS, 0.0632 µM
[28] = RPMI 5 mM glucose + 10% dialyzed FBS, 0.19 µM
[29] = RPMI 5 mM glucose + 10% dialyzed FBS, 0.569 µM
[30] = RPMI 5 mM glucose + 10% dialyzed FBS, 1.71 µM
[31] = RPMI 5 mM glucose + 10% dialyzed FBS, 5.12 µM
[32] = RPMI 5 mM glucose + 10% dialyzed FBS, 15.4 µM
[33] = RPMI 5 mM glucose + 10% dialyzed FBS, 46.1 µM

Row | Compound | cell viability [1] [%] | cell viability [2] [%] | cell viability [3] [%] | cell viability [4] [%] | cell viability [5] [%] | cell viability [6] [%] | cell viability [7] [%] | cell viability [8] [%] | cell viability [9] [%] | cell viability [10] [%] | cell viability [11] [%] | cell viability [12] [%] | cell viability [13] [%] | cell viability [14] [%] | cell viability [15] [%] | cell viability [16] [%] | cell viability [17] [%] | cell viability [18] [%] | cell viability [19] [%] | cell viability [20] [%] | cell viability [21] [%] | cell viability [22] [%] | cell viability [23] [%] | cell viability [24] [%] | cell viability [25] [%] | cell viability [26] [%] | cell viability [27] [%] | cell viability [28] [%] | cell viability [29] [%] | cell viability [30] [%] | cell viability [31] [%] | cell viability [32] [%] | cell viability [33] [%]
1 | O=C(N[C@H]1CN2CCC1CC2)c1ccc(Cl)cc1 | 91.3 | 106 | 110 | 138 | 123 | 127 | 118 | 107 | 127 | 103 | 68.1 | 97.8 | 97.1 | 103 | 101 | 114 | 103 | 103 | 94.8 | 92.2 | 102 | 98.3 | 107 | 101 | 97.2 | 91.4 | 108 | 109 | 103 | 92.2 | 103 | 106 | 109
2 | N#C[C@@H]1C[C@@H]2C[C@@H]2N1C(=O)[C@@H](N)C12CC3CC(CC(O)(C3)C1)C2 | 139 | 118 | 124 | 134 | 129 | 129 | 127 | 106 | 96.6 | 32.2 | 5.88 | 120 | 109 | 118 | 124 | 109 | 116 | 111 | 110 | 113 | 112 | 67.3 | 122 | 125 | 106 | 125 | 131 | 123 | 132 | 122 | 118 | 97.9 | 44.6
3 | CC[P](CC)(CC)=[Au][S][C@@H]1O[C@H](COC(C)=O)[C@@H](OC(C)=O)[C@H](OC(C)=O)[C@H]1OC(C)=O | 118 | 121 | 119 | 109 | 120 | 105 | 115 | 55.6 | 9.31 | 3.26 | 2.08 | 99.7 | 115 | 105 | 109 | 116 | 87 | 90.4 | 26.9 | 6.9 | 2.16 | 1.83 | 95 | 125 | 111 | 125 | 102 | 114 | 108 | 48.9 | 11.6 | 3.14 | 1.73
4 | O=C(Nc1ccncc1)C(=O)c1cn(Cc2ccc(Cl)cc2)c2ccccc12 | 106 | 110 | 116 | 105 | 77.9 | 38.1 | 34 | 32.7 | 36.2 | 60.6 | 61.7 | 95.5 | 98.1 | 89.3 | 89.2 | 100 | 46.2 | 26.3 | 22.6 | 53.7 | 44.1 | 61.9 | 88.2 | 91.2 | 116 | 106 | 80.4 | 45.4 | 28.3 | 34.7 | 45.3 | 39.7 | 49.4
5 | CN(C)Cc1cccc(N/C(=C2\C(=O)Nc3cc(C(=O)N(C)C)ccc32)c2ccccc2)c1 | 99.3 | 105 | 112 | 112 | 91.1 | 118 | 110 | 97.9 | 74.8 | 58.2 | 28.8 | 100 | 105 | 101 | 105 | 103 | 107 | 95.2 | 92.4 | 84.6 | 68.5 | 55 | 95.7 | 88.9 | 95.9 | 96.4 | 107 | 99.6 | 112 | 112 | 81.2 | 73 | 61.6
6 | O=C(O)CCc1ccc(NCc2cccc(Oc3ccccc3)c2)cc1 | 97.4 | 105 | 134 | 132 | 119 | 96.9 | 114 | 111 | 122 | 117 | 141 | 85.8 | 99.2 | 108 | 102 | 119 | 111 | 105 | 102 | 109 | 103 | 123 | 82.6 | 103 | 95.1 | 92.5 | 105 | 105 | 103 | 98.6 | 111 | 119 | 104
7 | COc1ccccc1OCC(O)CN1CCN(CC(=O)Nc2c(C)cccc2C)CC1 (stereo unspecified) | 109 | 117 | 142 | 142 | 129 | 157 | 168 | 154 | 138 | 138 | 137 | 115 | 131 | 125 | 167 | 139 | 155 | 141 | 136 | 144 | 139 | 141 | – | – | – | – | – | – | – | – | – | – | –
8 | CC=CC1=C(C(=O)O)N2C(=O)[C@@H](NC(=O)[C@H](N)c3ccc(O)cc3)[C@H]2SC1.O | 80.5 | 102 | 113 | 104 | 120 | 116 | 118 | 60.7 | 33.1 | 31.3 | 23.8 | 93.7 | 109 | 113 | 116 | 112 | 125 | 118 | 28.4 | 22.2 | 18.1 | 15.1 | 106 | 104 | 96 | 104 | 117 | 113 | 109 | 89.6 | 24.8 | 23.6 | 20
9 | CCOC(=O)c1c(/C(C#N)=C\N)c2ccc(Cl)c(Cl)c2n1C | 89.9 | 95.7 | 94.3 | 95 | 72.6 | 101 | 91.1 | 87.2 | 94 | 95.8 | 103 | 81.9 | 80.7 | 82.5 | 92 | 80.4 | 77.3 | 79.7 | 88 | 80.8 | 78.6 | 95.3 | 90.7 | 90.1 | 87.7 | 91.4 | 79.2 | 77 | 86 | 86.8 | 87.2 | 77.6 | 101
10 | COc1ccc(CC2SC(=O)NC2=O)cc1C(=O)NCc1ccc(C(F)(F)F)cc1 (stereo unspecified) | 84.2 | 83.3 | 90.7 | 86.1 | 79.4 | 85.5 | 99.3 | 99.2 | 83 | 82.1 | 86.3 | 75.9 | 88.2 | 94 | 88 | 81.7 | 84.1 | 90.1 | 92 | 81.4 | 85.3 | 92 | 89.1 | 89.1 | 86.9 | 96 | 89 | 93.4 | 96.7 | 86.3 | 85.9 | 79.3 | 90.8
11 | O=C(c1ccc(C(=O)N2CCC(N3CCCC3)CC2)c(Nc2ccccc2)c1)N1CCC(N2CCCC2)CC1 | 98.6 | 110 | 104 | 103 | 105 | 111 | 112 | 104 | 102 | 113 | 112 | 85.6 | 98.2 | 90.3 | 95 | 106 | 91.7 | 82.3 | 94.3 | 99.7 | 92.6 | 107 | 101 | 110 | 111 | 98.6 | 98.2 | 104 | 101 | 109 | 96.7 | 96.3 | 97.3
12 | Clc1ccc(C(Cn2ccnc2)OCc2ccc(Sc3ccccc3)cc2)c(Cl)c1 (stereo unspecified) | 126 | 101 | 124 | 120 | 146 | 109 | 126 | 107 | 109 | 98.8 | 104 | 99.2 | 108 | 106 | 111 | 111 | 125 | 104 | 103 | 118 | 70.9 | 63.8 | 111 | 123 | 116 | 112 | 116 | 125 | 134 | 104 | 124 | 88.9 | 59.8
13 | Oc1ccc(C2CNCCc3c2cc(O)c(O)c3Cl)cc1 (stereo unspecified) | 91.8 | 106 | 93.7 | 106 | 107 | 101 | 85.3 | 106 | 115 | 103 | 115 | 86 | 90.1 | 81.7 | 96.5 | 93.6 | 80.7 | 90.7 | 96.3 | 85.8 | 90.3 | 87.4 | 84.1 | 95.9 | 98.2 | 95.6 | 99.9 | 94.3 | 95.7 | 93.4 | 95.2 | 101 | 88.5
14 | CCOC\1=C(/C(=O)NC2=CC=C(OC3=C(Cl)C(=NC=C3)N)C(=C2)F)C(=O)N(\C=C1)C4=CC=C(F)C=C4 | 86.9 | 96.1 | 99.3 | 96.1 | 102 | 106 | 91.6 | 75.6 | 75.1 | 70.9 | 39.1 | 99.8 | 102 | 104 | 90.4 | 100 | 96.6 | 93.5 | 88.7 | 90 | 92 | 51.9 | 111 | 96.1 | 92.2 | 94.7 | 95.3 | 96.8 | 89.1 | 95.8 | 100 | 74.7 | 52.7
